Measured values as given in patent US6964975B2, “Isoxazole and thiazole compounds and use thereof as medicine” (Kirin Beer Kabushiki Kaisha, priority 2000, dated 2005).

Each molecule was assayed against T1, human EDG-2 (Homo sapiens, UniProt Q92633) (assay: Inhibitory activity on LPA-induced elevation of intracellular Ca2+ level). Conditions: 50% inhibition of elevation of intracellular Ca2+ level by LPA, human EDG-2/HepG2 cells, fura-2.
T1 construct: cDNA of the cloned human EDG-2 was introduced into pEFneo, which is an animal expression vector; expressed in transfected cells; host or cells: HepG2
T1 sequence (Q92633 whole entry): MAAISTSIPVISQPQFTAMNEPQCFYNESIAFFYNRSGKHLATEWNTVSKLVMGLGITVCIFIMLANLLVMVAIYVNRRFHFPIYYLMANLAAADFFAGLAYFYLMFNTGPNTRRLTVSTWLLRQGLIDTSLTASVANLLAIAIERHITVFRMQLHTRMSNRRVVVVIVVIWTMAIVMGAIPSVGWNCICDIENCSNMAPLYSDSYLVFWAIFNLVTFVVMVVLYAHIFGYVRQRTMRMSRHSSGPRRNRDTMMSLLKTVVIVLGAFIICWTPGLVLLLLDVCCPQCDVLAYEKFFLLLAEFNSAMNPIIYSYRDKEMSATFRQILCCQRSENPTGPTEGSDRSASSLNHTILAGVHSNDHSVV
Format: cell-based
Excerpt: The human EDG-2 expression plasmid was introduced into HepG2 cells by electroporation. After the introduction, culturing was continued while exchanging selective media every 3 to 4 days, thereby obtaining an expressed colony. Regarding these cells, Ca-influx and cell-proliferation by LPA, level of [^3H] LPA binding and the like were inspected to select a cell line which highly expresses human EDG-2 (human EDG-2/HepG2).
Human EDG-2/HepG2 cells were washed and then suspended in 0.1% BSA (bovine serum albumin)-containing HEPES buffer. A fluorescent indicator, fura-2/AM (Wako Pure Chemical Industries, Ltd.), was added, and the mixture was shaken at room temperature for 45 minutes so that the indicator is included in the cell. Cells were washed again and then suspended in 0.1% BSA-containing HEPES buffer, and intracellular Ca^2+ level was assayed using FDSS2000 (Hamamatsu Photonics). […] Each test compound was added to the cell suspension followed by the addition of LPA, thereby examining the inhibitory activity of the test compound on the function of LPA for elevating the intracellular Ca level. […] The lower the IC50 value, the higher the antagonistic activity on the LPA receptor.

| IC50 [µM] | SMILES |
| --- | --- |
| 30 to 100 | Cc1onc(-c2ccccc2)c1NC(=O)OC1CCc2ccccc21 (stereo not drawn) [Compound 97, 2,3-Dihydro-1H-1-indenyl N-(5-methyl-3-phenyl-4-isoxazolyl)carbamate] |
| 3 to 10 | CCc1noc(-c2ccc(CCl)cc2)c1NC(=O)OC(C)c1ccccc1F (stereo not drawn) [Compound 160, 1-(2-Fluorophenyl)ethyl N-{5-[4-(chloromethyl)phenyl]-3-ethyl-4-isoxazolyl}carbamate] |
| 30 | COCc1noc(-c2ccccc2)c1NC(=O)OC(C)c1ccccc1Cl (stereo not drawn) [Compound 78, 1-(2-Chlorophenyl)ethyl N-[3-(methoxymethyl)-5-phenyl-4-isoxazolyl]carbamate] |
| 1 to 3 | Cc1noc(-c2cccc(CCl)c2)c1NC(=O)OC(C)c1ccccc1Cl (stereo not drawn) [Compound 70, 1-(2-Chlorophenyl)ethyl N-[5-[3-(chloromethyl)phenyl]-3-methyl-4-isoxazolyl]carbamate] |
| 30 to 100 | C=CC(OC(=O)Nc1c(-c2ccccc2)noc1C)c1ccccc1 (stereo not drawn) [Compound 81, 1-Phenylallyl N-(5-methyl-3-phenyl-4-isoxazolyl)carbamate] |
| 1 to 3 | Cc1onc(-c2ccccc2)c1NC(=O)OC(c1ccccc1)C(F)(F)F (stereo not drawn) [Compound 80, 2,2,2-Trifluoro-1-phenylethyl N-(5-methyl-3-phenyl-4-isoxazolyl)carbamate] |
| 3 | COCc1ccc(-c2onc(C)c2NC(=O)OC(C)c2ccccc2Cl)cc1 (stereo not drawn) [Compound 87, 1-(2-Chlorophenyl)ethyl N-[5-[4-(methoxymethyl)phenyl]-3-methyl-4-isoxazolyl]carbamate] |
| 3 to 10 | Cc1noc(-c2ccc(CCl)cc2)c1NC(=O)OC(C)c1ccccc1F (stereo not drawn) [Compound 155, 1-(2-Fluorophenyl)ethyl N-{5-[4-(chloromethyl)phenyl]-3-methyl-4-isoxazolyl}carbamate] |
| 30 to 100 | CCCCCOC(=O)Nc1c(-c2ccccc2)noc1C [Compound 99, Pentyl N-(5-methyl-3-phenyl-4-isoxazolyl)carbamate] |
| 10 to 30 | CCCCc1ccc(-c2onc(C)c2NC(=O)OC(C)c2ccccc2Cl)cc1 (stereo not drawn) [Compound 65, 1-(2-Chlorophenyl)ethyl N-[5-(4-butylphenyl)-3-methyl-4-isoxazolyl]carbamate] |
| 30 to 100 | CCCCC(C)OC(=O)Nc1c(-c2ccccc2)noc1C (stereo not drawn) [Compound 101, 1-Methylpentyl N-(5-methyl-3-phenyl-4-isoxazolyl)carbamate] |
| 10 | Cc1ccsc1-c1onc(C)c1NC(=O)OC(C)c1ccccc1 (stereo not drawn) [Compound 66, 1-Phenylethyl N-[3-methyl-5-(3-methyl-2-thienyl)-4-isoxazolyl]carbamate] |
| 3 to 10 | Cc1noc(-c2ccc(CN3CCOCC3)cc2)c1NC(=O)OC(C)c1ccccc1Cl (stereo not drawn) [Compound 88, 1-(2-Chlorophenyl)ethyl N-[3-methyl-5-[4-(morpholinomethyl)phenyl]-4-isoxazolyl]carbamate] |
| 3 to 10 | Cc1noc(-c2ccoc2)c1NC(=O)OC(C)c1ccccc1Cl (stereo not drawn) [Compound 68, 1-(2-Chlorophenyl)ethyl N-[5-(3-furyl)-3-methyl-4-isoxazolyl]carbamate] |

The remaining lines, values behind:

| SMILES | IC50 [µM] |
| --- | --- |
| Cc1noc(-c2ccccc2)c1NC(=O)OCc1ccccc1 [Compound 7, Benzyl N-(3-methyl-5-phenyl-4-isoxazolyl)carbamate] | 30 |
| Cc1noc(-c2cccs2)c1NC(=O)OC(C)c1ccccc1Cl (stereo not drawn) [Compound 57, 1-(2-Chlorophenyl)ethyl N-[3-methyl-5-(2-thienyl)-4-isoxazolyl]carbamate] | 3 |
| Cc1cccc(-c2onc(C)c2NC(=O)OC(C)c2ccccc2)c1 (stereo not drawn) [Compound 27, 1-Phenylethyl N-[3-methyl-5-(3-methylphenyl)-4-isoxazolyl]carbamate] | 30 |
| Cc1noc(-c2ccc(OC(F)(F)F)cc2)c1NC(=O)OC(C)c1ccccc1F (stereo not drawn) [Compound 45, 1-(2-Fluorophenyl)ethyl N-[3-methyl-5-[4-(trifluoromethoxy)phenyl]-4-isoxazolyl]carbamate] | 3 |
| Cc1onc(-c2ccccc2)c1NC(=O)O[C@H](C)c1ccccc1Br [Compound 22, (1R)-1-(2-Bromophenyl)ethyl N-(5-methyl-3-phenyl-4-isoxazolyl)carbamate] | 3 to 10 |
| Cc1noc(-c2cccc(F)c2)c1NC(=O)OC(C)c1ccccc1 (stereo not drawn) [Compound 29, 1-Phenylethyl N-[5-(3-fluorophenyl)-3-methyl-4-isoxazolyl]carbamate] | 10 |
| Cc1onc(-c2ccccc2)c1NC(=O)O[C@@H](C)c1ccccc1 [Compound 10, (1S)-1-Phenylethyl N-(5-methyl-3-phenyl-4-isoxazolyl)carbamate] | ≥ 100 |
| Cc1noc(-c2ccccc2)c1NC(=O)OC(C)c1ccccc1Cl (stereo not drawn) [Compound 3, 1-(2-Chlorophenyl)ethyl N-(3-methyl-5-phenyl-4-isoxazolyl)carbamate] | 3 |
| Cc1noc(-c2ccc([N+](=O)[O-])cc2)c1NC(=O)OC(C)c1ccccc1 (stereo not drawn) [Compound 54, 1-Phenylethyl N-[3-methyl-5-(4-nitrophenyl)-4-isoxazolyl]carbamate] | 10 to 30 |
| Cc1noc(-c2ccc(F)cc2)c1NC(=O)OC(C)c1ccccc1Cl (stereo not drawn) [Compound 41, 1-(2-Chlorophenyl)ethyl N-[5-(4-fluorophenyl)-3-methyl-4-isoxazolyl]carbamate] | 3 to 10 |
| Cc1noc(-c2ccc(F)cc2)c1NC(=O)OC(C)c1ccccc1 (stereo not drawn) [Compound 40, 1-Phenylethyl N-[5-(4-fluorophenyl)-3-methyl-4-isoxazolyl]carbamate] | 10 |
| Cc1noc(-c2ccc([N+](=O)[O-])cc2)c1NC(=O)OC(C)c1ccccc1Cl (stereo not drawn) [Compound 55, 1-(2-Chlorophenyl)ethyl N-[3-methyl-5-(4-nitrophenyl)-4-isoxazolyl]carbamate] | 3 to 10 |
| Cc1ccc(-c2onc(C)c2NC(=O)OC(C)c2ccccc2Cl)cc1 (stereo not drawn) [Compound 38, 1-(2-Chlorophenyl)ethyl N-[3-methyl-5-(4-methylphenyl)-4-isoxazolyl]carbamate] | 10 |
| COc1ccc(-c2onc(C)c2NC(=O)OC(C)c2ccccc2Cl)cc1 (stereo not drawn) [Compound 50, 1-(2-Chlorophenyl)ethyl N-[5-(4-methoxyphenyl)-3-methyl-4-isoxazolyl]carbamate] | 10 to 30 |
| Cc1onc(-c2ccccc2)c1NC(=O)OC(C)c1ccccc1F (stereo not drawn) [Compound 19, 1-(2-Fluorophenyl)ethyl N-(5-methyl-3-phenyl-4-isoxazolyl)carbamate] | 3 to 10 |
| Cc1onc(-c2ccccc2)c1NC(=O)OCc1ccccc1 [Compound 2, Benzyl N-(5-methyl-3-phenyl-4-isoxazolyl)carbamate] | 30 to 100 |
| Cc1noc(-c2ccc(OC(F)(F)F)cc2)c1NC(=O)O[C@H](C)c1ccccc1Br [Compound 44, (1R)-1-(2-Bromophenyl)ethyl N-[3-methyl-5-[4-(trifluoromethoxy)phenyl]-4-isoxazolyl]carbamate] | 3 |
| Cc1ccc(-c2onc(C)c2NC(=O)OC(C)c2ccccc2F)cc1 (stereo not drawn) [Compound 49, 1-(2-Fluorophenyl)ethyl N-[3-methyl-5-(4-methylphenyl)-4-isoxazolyl]carbamate] | 10 to 30 |
| Cc1onc(-c2ccccc2)c1NC(=O)O[C@H](C)c1ccccc1Cl [Compound 17, (1R)-1-(2-Chlorophenyl)ethyl N-(5-methyl-3-phenyl-4-isoxazolyl)carbamate] | 3 |
| Cc1noc(-c2ccccc2F)c1NC(=O)OC(C)c1ccccc1 (stereo not drawn) [Compound 42, 1-Phenylethyl N-[5-(2-fluorophenyl)-3-methyl-4-isoxazolyl]carbamate] | 10 |
| Cc1noc(-c2ccncc2)c1NC(=O)OC(C)c1ccccc1 (stereo not drawn) [Compound 61, 1-Phenylethyl N-[3-methyl-5-(4-pyridyl)-4-isoxazolyl]carbamate] | 3 to 10 |
| Cc1noc(-c2ccccc2F)c1NC(=O)OC(C)c1ccccc1Cl (stereo not drawn) [Compound 43, 1-(2-Chlorophenyl)ethyl N-[5-(2-fluorophenyl)-3-methyl-4-isoxazolyl]carbamate] | 3 to 10 |
| Cc1onc(-c2cccc(F)c2)c1NC(=O)OC(C)c1ccccc1Cl (stereo not drawn) [Compound 21, 1-(2-Chlorophenyl)ethyl N-[3-(3-fluorophenyl)-5-methyl-4-isoxazolyl]carbamate] | 3 |
| Cc1ccc(-c2noc(C)c2NC(=O)OC(C)c2ccccc2Cl)cc1 (stereo not drawn) [Compound 5, 1-(2-Chlorophenyl)ethyl N-[5-methyl-3-(4-methylphenyl)-4-isoxazolyl]carbamate] | 10 to 30 |
| Cc1onc(-c2ccc(CO)cc2)c1NC(=O)OC(C)c1ccccc1Cl (stereo not drawn) [Compound 8, 1-(2-Chlorophenyl)ethyl N-[3-[4-(hydroxymethyl)phenyl]-5-methyl-4-isoxazolyl]carbamate] | 3 to 10 |
| Cc1noc(-c2cccc(F)c2)c1NC(=O)OC(C)c1ccccc1Cl (stereo not drawn) [Compound 30, 1-(2-Chlorophenyl)ethyl N-[5-(3-fluorophenyl)-3-methyl-4-isoxazolyl]carbamate] | 3 to 10 |
| Cc1noc(-c2cccc([N+](=O)[O-])c2)c1NC(=O)OC(C)c1ccccc1Cl (stereo not drawn) [Compound 59, 1-(2-Chlorophenyl)ethyl N-[3-methyl-5-(3-nitrophenyl)-4-isoxazolyl]carbamate] | 3 to 10 |
| Cc1noc(-c2ccc(C#N)cc2)c1NC(=O)OC(C)c1ccccc1 (stereo not drawn) [Compound 46, 1-Phenylethyl N-[5-(4-cyanophenyl)-3-methyl-4-isoxazolyl]carbamate] | 3 to 10 |
